Test results: patent EP0859230A1, “Detection of analytes using electrochemistry” (priority 1997, dated 1998)

Assays:
[1] = tested on: PBP (penicillin binding protein); assay: Competitive inhibition assay: penicillin vs 7-ACA-GOD on PBP-coated nitrocellulose strips, amperometric detection in flow cell; conditions: CV in percent in brackets; for Velocity (nA sec^1) Mean: over 200 sec; for Absolute response (µA) Mean (CV): over 500 sec
Experimental: Strips of nitrocellulose membrane were cut to the exact size of 0.4 x 0.9 cm. Strips were soaked in a solution of 5 mg/ml PBP (penicillin binding protein) in buffer (0.1M phosphate buffered saline (PBS), pH 7.4). The strips were left to soak for 1 hour at ambient temperature.
After incubation, strips were blocked in a 2% w/v bovine serum albumin (BSA) solution in PBS buffer (pH 7.4) for 1 hour at ambient temperature.
Individual strips were removed from the blocking solution and incubated for 5 minutes at 64°C in a 1:2000 dilution of 7-ACA-GOD stock solution in whole milk with or without free analyte (penicillin G) present.
Strips were washed for 20 seconds in PBS and placed onto the working electrode of the screen-printed sensor card.
The card was mounted into the flow cell or flowing liquid system and a 0.1M PBS solution was introduced, pumped at a constant rate through the flow cell. The working electrode was poised at a potential of +350 mV and the system allowed to achieve electrochemical equilibrium. A 0.1M glucose solution in 0.1M PBS/0.1M KCl was then pumped into the system. The flow was halted after 60 seconds. The electrochemical response of the system was monitored throughout this period.
Results can be expressed as total current increase in µA over a given time interval or can be interpreted as current increase per unit time (µA/sec).
Nitro-cellulose strips were prepared in two separate batches. […] Responses are also recorded as 'velocities' whereby the maximum current versus time slope is measured during the period of glucose flow across the working electrode surface (expressed as nA/sec). Results are also expressed as a percentage of the signal of the zero ppb penicillin positive control, that is, the zero inhibited response that therefore yields a 100% response value.

[2] = tested on: monoclonal anti-gentamycin antibody; assay: Competitive flow-cell electrochemical immunoassay: free gentamycin vs gentamycin-GOD conjugate in milk; type: binding
Experimental: Strips of nitrocellulose were cut to the exact size of 0.4 x 0.9 cm. Strips were soaked in a solution of 5 µg/ml of monoclonal anti-gentamycin antibody in PBS buffer pH 7.4, for 1 hour at ambient temperature.
After incubation, strips were blocked in a 2% w/v BSA solution in PBS(pH 7.4) for 1 hour at ambient temperature.
Individual strips were removed from the blocking solution and mounted onto the working electrode surface, thus creating a complete sensor card.
Sensor cards were mounted into the flow cell, the strip of nitrocellulose being held in place by a rubber seal, used to prevent leakage during operation of the flow cell device.
One ml samples of milk were aliquoted, to which were added 25 µl of a: 1:1000 (A), 1:2000 (B) or 1:2500 (C) dilution of gentamycin-GOD conjugate (prepared with state of the art procedures).
Free gentamycin was then added to each milk sample, yielding solutions having gentamycin concentrations varying between 0 and 1000 ppb.
A pumping device was connected to the flow cell and the prepared milk samples were each tested with a new sensor card mounted in place.
The flow rate through the system was adjusted so that the complete milk sample passed through the system over a 3 minute time period. A 1 minute wash step was then performed with 0.1 % w/v Tween in 0.1M PBS (pH 7.4). Immediately after each wash step, 0.5M glucose in 0.1M PBS/ 0.1M KCl was passed through the flow cell and the electrochemical responses generated were recorded both as absolute values and as initial response-time velocities in nA/sec.
A 1:10 dilution of the MoAb stock solution was used to coat the nitro-cellulose strips. Gentamycin-glucose oxidase conjugate concentrations were varied from 1:4000 (exp.A) to 1:8000 (exp.B) to 1:10 000 (exp. C).

Antigentamycin = assay: End-point competitive microtiter plate assay with gentamycin-GOD, hydrogen peroxide peak measured in flow cell; type: binding; conditions: gentamycin concentrations as low as 5 ppb; 1:10 000 dilution of gentamycin-GOD conjugate
Experimental: The immunological reaction step is performed in a microtiter plate. Using GOD as the enzyme label, the final microtiter well solution will contain hydrogen peroxide, the amount of which is inversely proportional to the amount of free gentamycin present in the sample under uniform conditions (competitive assay approach). This solution is pumped through the flow cell yielding a current peak, the magnitude of which is directly proportional to the amount of hydrogen peroxide present. Since no enzyme label is present in the final solution, no further hydrogen peroxide generation occurs after removal of solution from the microtiter well, thus current peaks, as opposed to current steps are observed on liquid passage through the flow cell.
Microtiter plates were coated in carbonate/bicarbonate buffer pH 9.6 for 1 hour at 37°C, then washed and blocked with 0.5% w/v gelatin in PBS buffer pH 7.4. Plates were either used directly or stored at 4°C until required.
Primary incubations with gentamycin-GOD, with or without free gentamycin, and in milk or buffer (PBS pH 7.4) were performed for 1 hour at 37°C. Gentamycin-GOD concentrations were varied between 1:1000 and 1:20 000. […]
After a given time period for substrate conversion, 150 µl of solution was pumped through the flow cell using a peristaltic pump set at a constant flow rate of 300 µl/min. Responses were measured as peak heights in nA or mA. […]

[3] = Batch 1, penicillin 100 ppb in whole milk, n=2
[4] = Batch 2, penicillin 10 ppb in whole milk, n=3
[5] = Batch 2, penicillin 100 ppb in whole milk, n=2
[6] = Overall, penicillin 100 ppb in whole milk, n=4
[7] = Exp. A (conjugate 1:4000), gentamycin 10 ppb in milk, duplicate
[8] = Exp. A (conjugate 1:4000), gentamycin 100 ppb in milk, duplicate
[9] = Exp. A (conjugate 1:4000), gentamycin 1000 ppb in milk, duplicate
[10] = Exp. B (conjugate 1:8000), gentamycin 10 ppb in milk, duplicate
[11] = Exp. B (conjugate 1:8000), gentamycin 100 ppb in milk, duplicate
[12] = Exp. C (conjugate 1:10 000), gentamycin 10 ppb in milk, triplicate
[13] = Exp. C (conjugate 1:10 000), gentamycin 100 ppb in milk, triplicate

CC1(C)S[C@@H]2[C@H](NC(=O)Cc3ccccc3)C(=O)N2[C@H]1C(=O)O [Penicillin, penicillin G]
Velocity (nA sec^1) Mean [1, 3]: 0.209 (12.6) nA sec^1
Absolute response (µA) Mean (CV) [1, 3]: 0.087 (35.8) µA
Velocity (nA sec^1) Mean [1, 4]: 0.151 (32.0) nA sec^1
Absolute response (µA) Mean (CV) [1, 4]: 0.064 (17.7) µA
Velocity (nA sec^1) Mean [1, 5]: 0.062 (5.7) nA sec^1
Absolute response (µA) Mean (CV) [1, 5]: 0.026 (21.8) µA
Absolute response (µA) Mean (CV) ([1]; Overall (batch 1 + batch 2), penicillin 10 ppb in whole milk, n=3): 0.064 (17.7) µA
Velocity (nA sec^1) Mean ([1]; Overall, penicillin 10 ppb in whole milk, n=3): 0.151 (32.0) nA sec^1
Velocity (nA sec^1) Mean [1, 6]: 0.135 (64.9) nA sec^1
Absolute response (µA) Mean (CV) [1, 6]: 0.057 (70.2) µA

gentamycin
Absolute response (µA) Mean value [2, 7]: 3217 µA
Velocity (nA sec^1) Mean value [2, 7]: 36.0 nA sec^1
Absolute response (µA) Mean value [2, 8]: 3050 µA
Velocity (nA sec^1) Mean value [2, 8]: 22.7 nA sec^1
Absolute response (µA) Mean value [2, 9]: 1350 µA
Velocity (nA sec^1) Mean value [2, 9]: 8.7 nA sec^1
Absolute response (µA) Mean value [2, 10]: 2438 µA
Velocity (nA sec^1) Mean value [2, 10]: 18.0 nA sec^1
Absolute response (µA) Mean value [2, 11]: 2025 µA
Velocity (nA sec^1) Mean value [2, 11]: 14.3 nA sec^1
Absolute response (µA) Mean value [2, 12]: 1868 µA
Velocity (nA sec^1) Mean value [2, 12]: 10.8 nA sec^1
Absolute response (µA) Mean value [2, 13]: 1333 µA
Velocity (nA sec^1) Mean value [2, 13]: 6.0 nA sec^1
inhibition of the positive signal (Antigentamycin): Considerable inhibition
